In one assay the test system is rat liver microsomes. Description: lipid peroxidation: ascorbic acid-induced production of malonaldehyde in liver microsomes. The assay is classed as biochemical. Particulars: 0.1 mM ascorbic acid, 20 min at 37° C. As to the method:
Furthermore, the effect on lipid peroxidation quantified by the measurement of ascorbic acid-induced production of malonaldehyde in rat liver microsomes. Specifically, homogenates of liver microsomes (150 μg) are pre-incubated for 5 min at 37° C. with the test salt (as a 10-fold concentrated solution in H2O), reference compound or water (control) in a buffer containing 300 mM NaCl, 0.1 mM FeCl3 and 8 mM NaH2PO4/Na2HPO4 (pH 7.4). Thereafter, the reaction is initiated by the addition of 0.1 mM ascorbic acid and the mixture is incubated for 20 min at 37° C. For basal control measurements, ascorbic acid is omitted from the incubation medium. These measurements are also used to detect any compound interference with the photometric detection at the selected wavelength. Following incubation, the reaction is stopped by the addition of 5 mM EDTA/NaOH. […] The amount of lipid peroxides present in the supernatant is quantified by measuring the absorbance at λ=532 nm using a spectrophotometer. This assay may be performed using the standard inhibitory reference compound N-propyl gallate, which may be tested in each experiment at several concentrations to obtain an inhibition curve from which its IC50 value is calculated. […]
Background: Liver microsomes are a subcellular fraction often used to study metabolism.

The next assay deals with human HL-60 cells. Description: superoxide O2- secretion from PMA-stimulated HL-60 cells (cytochrome C reduction). It counts as cell-based. The settings on record: 0.25 h, 30 nM PMA-stimulated HL-60 cells, 15 min at 37° C. As to the method:
In addition, the effect on superoxide O2 secretion was measured. This assay quantifies the secretion of superoxide O2^− from phorbol 12-mysirate 13-acetate (PMA)-stimulated human HL-60 cells, by the measurement of cytochrome C reduction. The test salt (as a 10-fold concentrated solution in H2O), reference compound or water (control) are pre-incubated for 15 min at 37° C. with HL-60 cells (5×10^5 cells) suspended in a buffer containing 137 mM NaCl, 2.68 mM KCl, 0.9 mM CaCl2, 0.5 mM MgCl2, 8.1 mM Na2HPO4, 1.47 mM KH2PO4 (pH 7.4 ) and 19 μM cytochrome C. The absorbance is then measured at λ=550 nm using a spectrophotometer to detect any compound interference with the photometric detection at this wavelength. Thereafter, the reaction is initiated by the addition of 30 nM PMA and the mixture is incubated for 15 min at 37° C. in the dark. For basal control measurements, the incubation medium also contains 275 U/ml superoxyde dismutase (SOD) to catalyze the destruction of superoxide O2^−. […] The absorbance is then measured at λ=550 nm and the activity is determined by subtracting signal measured in the presence of SOD from that measured in its absence. This assay may be performed using the standard inhibitory reference compound, diphenyleneiodonium, which may be tested in each experiment at several concentrations to obtain an inhibition curve from which its IC50 value is calculated. […]

A further assay has as its target T1, inducible NOS (Mus musculus, UniProt P29477).
T1 construct: using an enzyme isolated from LPS-+INFγ-treated mouse macrophages; endogenous in cells; host or cells: LPS + IFN-gamma-treated mouse macrophages (enzyme isolated from the cells)
Description: inducible NOS activity assay (formation of nitrite from arginine, Griess reagent). The assay is classed as biochemical. As to the method:
First, an inducible NOS activity assay was performed on the recrystallized salt of Example 2. This assay measures the formation of nitrite from arginine using an enzyme isolated from LPS-+INFγ-treated mouse macrophages. In this assay, the test salt (as a 10-fold concentrated solution in H2O), reference compound or water (control) are incubated for 180 min at 37° C. with the enzyme (0.5 U) in a buffer containing 40 mM Tris-HCl (pH 8.0), 0.5 mM NADPH, 4 μM FAD, 12 μM BH4, 3 mM DTT and 0.1 mM L-arginine. For basal control measurements, the enzyme is omitted from the incubation medium. Following incubation, Griess reagent containing 0.05% naphtylene diamine, 0.5% sulfanilamide and 2.5% orthophosphoric acid is added and the samples are incubated for 10 min at 22° C. The amount of nitrite produced is then quantified with a microplate reader (Spectrafluorplus, Tecan) by measuring the absorbance at λ=550 nm. The results are expressed as IC50 in M. This assay may be performed using the standard inhibitory reference compound, I400 W, which may be tested in each experiment at several concentrations to obtain an inhibition curve from which its IC50 value is calculated. Further information regarding this protocol may be found in Tayeh and Marletta (1989), Macrophage oxidation of L-arginine to nitric oxide, nitrite, and nitrate, J. Biol. Chem., 264: 19654.
On the technique in general: Griess reagent forms a coloured azo dye with nitrite.

What is called IC50 is the midpoint of a concentration-inhibition curve. Read a high IC50 as lower potency. Take `CC(C)=NN=C(N)N`: the IC50 with rat liver microsomes came to 1800 µM; in the assay on human HL-60 cells it was 310 µM; at inducible NOS (enzyme isolated from LPS-+INFγ-treated mouse macrophages, 180 min at 37° C., 0.1 mM L-arginine), 37 µM. Further, the “nH, inducible NOS activity” value at inducible NOS (same inhibition curve as the IC50) is recorded as 0.9.
